The source of these data is US12343346B2, “Salts and solid forms of (S)-3-(4-((4-(morpholinomethyl)benzyl)oxy)-1-oxoisoindolin-2-yl)piperidine-2,6-dione and compositions comprising and methods of using the same” (Celgene Corporation, priority 2012, dated 2025).

“Also recorded” adds a separate entry of the source. Counter-ions that a name gives are not always drawn. Like-named read-outs stand apart in the source and are kept apart here.

Data set [1] can be described thus: Competitive slurry / Form E and Form F transformation. Type of data set: physicochemical.
Data set [2] is described as follows: Stability and form transfer experiments of HCl salt forms (XRPD result). Type of data set: physicochemical. How it is done: (§1) All of the solid samples generated in the polymorph screen were analyzed by XRPD. XRPD analysis was conducted on a PANalytical Empyrean or a Thermo ARL X'TRA X-ray powder diffractometer using Cu Kα radiation at 1.54 Å.
Further form conversion experiments were performed to determine interconversion among solid forms. Form conversion was also observed during further characterization of the solid forms.

The nature of data set [3]: Heating of solid form followed by XRPD. Type of data set: physicochemical. How it is done: Form C was obtained from anti-solvent recrystallization in DMSO/n-BuOH, DMSO/MTBE or DMSO/BuOAc. DSC and TGA thermograms of Form C are shown in FIG. 52 and FIG. 53, respectively. The TGA weight loss of 1.6 and 15.1 wt % corresponded to broad DSC endotherm around 50° C. and endotherms around 142-146° C., respectively, and can be attributed to loss of solvent/water in Form C. The DSC thermogram with an onset temperature of 251.8° C. was due to final melt/decomposition. […] The ^1H-NMR spectrum of Form C was consistent with Compound I structure with approximately one molar equivalent (or ˜13.9 wt %) of DMSO solvent (FIG. 55). Without being limited by any particular theory, Form C is a DMSO solvate. […]

A short description of data set [4]: Dynamic vapor sorption (DVS) moisture sorption/desorption. Type of data set: physicochemical. How it is done: Hygroscopicity was determined on a Surface Measurement Systems DVS. […] The relative humidity was increased from 0% to 90% RH at 10% RH step, then at 95% RH. The relative humidity was then decreased in a similar manner to accomplish a full adsorption/desorption cycle. For hydrated forms, the analysis started at 50% RH and increased to 90% RH at 10% RH step. The relative humidity was then decreased in a similar manner to 0% RH followed by increasing to 50% RH.

Data set [5] can be described thus: Equilibration (slurry) of Form A at room temperature and 50° C., form by XRPD. Type of data set: physicochemical. As to the method: Equilibration and evaporation experiments were carried out by adding an excess of the HCl salt to up to 2 mL of a test solvent. The resulting mixture was agitated for at least 24 hours at room temperature and 50° C. separately. Upon reaching equilibrium, the saturated supernatant solution was removed, filtered using 0.45 μm PTFE filters and allowed to evaporate in an open vial under nitrogen at room temperature and 50° C., respectively. The solid resulting from the equilibration was isolated and air-dried before analysis.
as §1

Data set [6] can be described thus: Compression test (2000-psi). Type of data set: physicochemical. To be noted: 2000-psi pressure for about 1 minute. How it is done: The stability of Form A was further characterized by compression test and form transfer experiments. Upon application of 2000-psi pressure for about 1 minute, the material was still Form A (FIG. 43).

`Cl.O=C1CC[C@H](N2Cc3c(OCc4ccc(CN5CCOCC5)cc4)cccc3C2=O)C(=O)N1` [Form A + F]: the “XRPD Result” value in data set [1] (IPA/water (50/50), 3 days at RT) is on record as “Form A”; in data set [1] (IPA/water (65/35), 3 days at RT), “Form A”; in data set [1] (IPA/water (80/20), 6 days at RT), “Form A”; in data set [1] (IPA/water (95/5), 6 days at RT), “Form A”; in data set [1] (MeOAc saturated with water, 3 days at RT), “Form A”; in data set [1] (Water, 3 days at RT), “Form A”.
With `O=C1CCC(N2Cc3c(OCc4ccc(CN5CCOCC5)cc4)cccc3C2=O)C(=O)N1` (racemic) [racemic Compound (I) hydrochloride methanol solvate], the “Form conversion upon exposure to ambient moisture” value in data set [2] is “converted to racemic Compound (I) hydrochloride hydrate”; in data set [2] (listed as MeOH solvate of HCl salt of racemic Compound (I)) it was “converts to a hydrate of HCl salt of racemic Compound (I)”.
As for `Cl.O=C1CC[C@H](N2Cc3c(OCc4ccc(CN5CCOCC5)cc4)cccc3C2=O)C(=O)N1` [Form C], the “Form conversion in IPA slurry” value in data set [2] is on record as “convert to Form A”. The “XRPD Result” value is on record as “Form A” in data set [2] (IPA, 24 h at RT) and “Form A” in data set [2] (MeOAc, 1 day at RT). Moreover, the “XRPD pattern after heating” value in data set [3] (heated to 165° C.) is listed as “converts to the Form A crystal form; also recorded: consistent with Form A”. The “XRPD Result after DVS (adsorption/desorption cycles)” value in data set [4] is “Form A”. The “Form conversion upon exposure to high humidity” value in data set [4] (higher than 70% RH in the DVS instrument) is given as “converts to the Form A crystal form; also recorded: convert to Form A”.
As to `Cl.O=C1CC[C@H](N2Cc3c(OCc4ccc(CN5CCOCC5)cc4)cccc3C2=O)C(=O)N1` [Form A], the “Approximate Solubility” value was below 1000 µg/mL (Acetone, room temperature); below 1000 µg/mL (CH2Cl2, room temperature); below 1000 µg/mL (CH3CN, room temperature); above 50000 µg/mL (CH3CN/H2O (1:1), room temperature); above 50000 µg/mL (DMSO, room temperature); below 1000 µg/mL (EtOAc, room temperature). In addition, the “Approximate Solubility” value by setting is: (EtOH, room temperature) around 1000 µg/mL; (EtOH/H2O (1:1), room temperature) above 50000 µg/mL; (H2O, room temperature) above 50000 µg/mL; (Heptane, room temperature) below 1000 µg/mL; (IPA, room temperature) around 1000 µg/mL; (MEK, room temperature) below 1000 µg/mL. Further, the “Approximate Solubility” value reads like this: (MTBE, room temperature) below 1000 µg/mL; (MeOAc, room temperature) below 1000 µg/mL; (MeOH, room temperature) around 10000 µg/mL; (THF, room temperature) below 1000 µg/mL; (THF/H2O (1:1), room temperature) above 50000 µg/mL; (Toluene, room temperature) below 1000 µg/mL. For the same compound, the “Approximate Solubility” value (n-BuOH, room temperature) was below 1000 µg/mL. Besides, the “Solubility (most soluble)” value (in MeCN/water (1:1), EtOH/water (1:1), THE/water (1:1), and water) is “greater than 50 mg/mL”. Moreover, where the note is “in MeOH”, the “Solubility (in words)” value is “moderate solubility”. The “Solubility (low or very low)” value (in acetone, MeCN, n-BuOH, EtOH, IPA, EtOAc, MEK, DCM, MTBE, heptane, MeOAc, toluene and THF) is at most 1000 µg/mL. The “Form by XRPD after equilibration” value in data set [5] (MeCN/H2O (95:5), RT) is reported as “Form D”. In addition, the “Form by XRPD after slurry” value in data set [5] (non-aqueous solvents, 24 h of slurry) is reported as “Form A”. Moreover, the “Hygroscopicity (in words, from DVS)” value in data set [4] is “slightly hygroscopic”. For the same compound, the “XRPD Result after DVS (adsorption/desorption cycles)” value in data set [4] is “remains as the Form A crystal; also recorded: no change”. In data set [4] (from 0 to 90% RH), the “DVS or other comments: water uptake” value is recorded as 1.8 wt % water uptake. Moreover, the “Relative stability of forms (in words)” value in data set [1] (water and aqueous/organic (aqueous/IPA) mixtures, competitive slurry) is on record as “more stable than hydrate forms”. In data set [6], the Form after compression entry is “remains as the Form A crystal form; also recorded: still Form A”.
As to `Cl.O=C1CC[C@H](N2Cc3c(OCc4ccc(CN5CCOCC5)cc4)cccc3C2=O)C(=O)N1` [Form B], the “XRPD Result” value in data set [2] (Exposed to ambient air, 1 week at RT) is reported as “Form A”; in data set [2] (IPA, 24 h at RT), “Form A”. Besides, the “Form conversion during exposure to ambient / ambient storage” value in data set [2] is reported as “converts to the Form A crystal form; also recorded: converted to Form A”; in data set [2] (listed as B) it was “Converts to Form A”. Further, the “XRPD Result after DVS (adsorption/desorption cycles)” value in data set [4] was “Form A”.
As to `Cl.O=C1CC[C@H](N2Cc3c(OCc4ccc(CN5CCOCC5)cc4)cccc3C2=O)C(=O)N1` [Form E], the “Form conversion in IPA slurry” value in data set [2] was “converted to Form A”. Besides, the “XRPD Result” value in data set [2] (IPA, 24 h at RT) was “Form A”; in data set [1] (IPA/water (40/60), Spontaneous, RT), “Form F”; in data set [1] (IPA/water (60/40), Spontaneous, RT), “Form F”; in data set [1] (IPA/water (80/20), Spontaneous, RT), “Form F”; in data set [1] (IPA/water (90/10), Spontaneous, RT), “Form F”; in data set [1] (IPA/water (95/5), Spontaneous, RT), “Form F”. Besides, the “XRPD pattern after heating” value in data set [3] (heated to 120° C.) is given as “remains as the Form E crystal form; also recorded: consistent with Form E”; in data set [3] (heated to 190° C.) it was “converts to an amorphous form; also recorded: amorphous pattern”. Further, in data set [4], the “Hygroscopicity (in words, from DVS)” value is on record as “hygroscopic”. For the same compound, the “XRPD Result after DVS (adsorption/desorption cycles)” value in data set [4] is listed as “converts to the Form F crystal form; also recorded: partially converted to Form F”. Besides, the “DVS or other comments: form conversion” value in data set [4] (during DVS experiment) is “Converts to Form F”. The “Form conversion in IPA/water mixtures” value in data set [1] (various IPA/water mixtures) is “convert to Form F”.
With `Cl.O=C1CC[C@H](N2Cc3c(OCc4ccc(CN5CCOCC5)cc4)cccc3C2=O)C(=O)N1` [Form K], the “Form conversion upon exposure to ambient humidity / ambient condition” value in data set [2] is “converts to the Form F crystal; also recorded: convert to Form F”; in data set [2] (listed as K), “Converts to Form F”.
As to `Cl.O=C1CC[C@H](N2Cc3c(OCc4ccc(CN5CCOCC5)cc4)cccc3C2=O)C(=O)N1` [Form I], the “XRPD Result” value in data set [2] (MeOAc, 1 minute at RT) is listed as “Form A”. In addition, in data set [2] (listed as I), the “Form conversion upon exposure to ambient humidity / ambient condition” value is on record as “Converts to Form A”. In data set [2] (washed with MeOAc), the “XRPD pattern after washing with MeOAc” value is listed as “converts to the Form A crystal; also recorded: consistent with Form A”.
